From patent US9239329B2 (priority 2006, dated 2016)

Tests used:
A/Fukuoka/C29/85(H3N2) = type: binding, influenza virus; details: virus 100 HAU in PBS, 150 μl/min for 5 min, room temperature
A/Guizhou/54/89(H3N2) = type: binding, influenza virus; details: virus 100 HAU in PBS, 150 μl/min for 5 min, room temperature
[1] = type: binding; details: 2.0 μM protein in PBS-T, 150 μl/min for 5 min, room temperature; FIG. 3

Substance | interaction between sugar chain and influenza virus (SPR signal intensity) (A/Fukuoka/C29/85(H3N2)) | interaction between sugar chain and influenza virus (SPR signal intensity) (A/Guizhou/54/89(H3N2)) | interaction of protein with immobilized sugar chains (increase in brightness at spot positions, SPR) [1]
Neu5Acα2-6Galβ1-4Glc | strong interaction | limited interaction | –
bovine serum albumin | – | – | increase in brightness at none of the spot positions
concanavalin A | – | – | interacted with the sugar chains immobilized at the spot positions
wheat germ agglutinin | – | – | interacted with the sugar chains immobilized at the spot positions
